Our source for the IC50 values is patent US9796704B2, “Substituted quinazolines as receptor-type kinase inhibitors” (Symphony Evolution, Inc., priority 2002, dated 2017).

In assay [1] the target is EGFR (Homo sapiens (Human), UniProt P00533). Put plainly: EGFR kinase inhibition, luciferase-coupled chemiluminescent assay (LCCA). Particulars: read-out: EGFR IC50.
Assay [2] has as its target EphA2 (Homo sapiens (Human), UniProt P29317). Put plainly: EphA2 kinase inhibition, luciferase-coupled chemiluminescent assay (LCCA). Conditions: read-out: EphA2 IC50.
Assay [3] deals with EphB4 (Homo sapiens (Human), UniProt P54760). In words: EphB4 kinase inhibition, 33P phosphoryl transfer assay (radiometric). The format is biochemical. The protocol:
Phosphorylated substrate products are quantified by scintillation spectrometry.
Kinase activity and compound inhibition are investigated using one or more of the three assay formats described below. The ATP concentrations are selected near its Michaelis-Menten constant (KM) for each individual kinase. Dose-response experiments are performed at ten different inhibitor concentrations in a 384-well plate format. […] These parameters are obtained by nonlinear regression algorithm built into ActivityBase software (available from ID Business Solutions Ltd., of Guildford, Surrey, UK). ^33P Phosphoryl Transfer Assay (Radiometric)
Greiner 384-well white clear bottom high binding plates (available from Greiner Bio-One, Inc., of Longwood, Fla.) are coated with 2 μg/well of protein or peptide substrate in a 50 μL volume overnight at ambient temperature. […] The coating solution is aspirated and the plates are washed once with 50 μL of assay buffer and padded dry. Subsequently compounds and enzymes are mixed with γ ^33P-ATP (3.3 μCi/nmol) in a total volume of 20 uL in suitable assay buffers (see Table 2). For example the final EphB4 reaction solution contains 20 mM TrisHCl, pH 7.5, 10 mM MgCl2, 0.01% Triton X-100, 0.1 mM NaVO3, 5 nM EphB4 enzyme and 5 μM ATP. […] The plates are subsequently washed 6-12 times with PBST or TBS buffer.

Chain of EGFR (P00533 672-1210): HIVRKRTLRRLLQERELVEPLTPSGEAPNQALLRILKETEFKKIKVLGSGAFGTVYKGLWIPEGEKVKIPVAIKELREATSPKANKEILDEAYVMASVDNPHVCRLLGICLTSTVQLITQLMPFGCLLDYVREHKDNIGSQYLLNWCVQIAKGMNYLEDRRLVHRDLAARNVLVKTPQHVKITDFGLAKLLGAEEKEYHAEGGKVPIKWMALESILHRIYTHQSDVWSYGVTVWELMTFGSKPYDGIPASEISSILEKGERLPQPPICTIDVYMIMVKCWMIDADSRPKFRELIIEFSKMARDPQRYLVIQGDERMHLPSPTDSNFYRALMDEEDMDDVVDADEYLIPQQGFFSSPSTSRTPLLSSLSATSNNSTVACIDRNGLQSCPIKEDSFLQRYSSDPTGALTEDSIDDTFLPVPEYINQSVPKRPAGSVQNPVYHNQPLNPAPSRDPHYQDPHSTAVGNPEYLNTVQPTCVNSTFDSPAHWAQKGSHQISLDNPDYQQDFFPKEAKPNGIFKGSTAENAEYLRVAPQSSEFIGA
Chain of EphB4 (P54760 605-890): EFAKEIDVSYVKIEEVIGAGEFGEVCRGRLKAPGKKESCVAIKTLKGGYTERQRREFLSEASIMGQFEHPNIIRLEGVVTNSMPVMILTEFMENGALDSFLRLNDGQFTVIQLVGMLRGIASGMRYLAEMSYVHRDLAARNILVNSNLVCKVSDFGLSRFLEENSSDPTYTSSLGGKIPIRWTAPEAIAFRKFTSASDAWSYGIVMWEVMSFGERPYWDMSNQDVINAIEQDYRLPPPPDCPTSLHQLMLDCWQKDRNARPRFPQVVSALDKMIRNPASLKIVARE
Chain of EphA2 (P29317 598-890): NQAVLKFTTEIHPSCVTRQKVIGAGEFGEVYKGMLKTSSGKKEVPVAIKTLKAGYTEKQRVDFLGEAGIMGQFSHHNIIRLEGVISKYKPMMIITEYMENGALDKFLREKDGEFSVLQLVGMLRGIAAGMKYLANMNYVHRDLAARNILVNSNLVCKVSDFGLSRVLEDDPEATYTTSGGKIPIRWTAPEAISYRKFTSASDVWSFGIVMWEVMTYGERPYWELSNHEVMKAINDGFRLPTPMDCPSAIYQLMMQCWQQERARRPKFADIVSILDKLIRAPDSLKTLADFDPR

Turning to `COc1cc2c(Nc3ccc(Cl)c(Cl)c3)ncnc2cc1OC[C@H]1O[C@H](OC)[C@H](O)[C@@H](O)[C@@H]1O` (stereo in doubt) [Example 194, methyl 6-O-[4-[(3,4-dichlorophenyl)amino]-6-(methyloxy)quinazolin-7-yl]-alpha-D-glucopyranoside], the values for the IC50 in assay [1], in assay [2] and in assay [3] were under 50 nM, 50 to 1000 nM and under 50 nM, respectively.

In the case of `COc1cc2c(Nc3cc(Cl)c(Cl)cc3F)ncnc2cc1OC[C@@H]1CO[C@H]2[C@@H]1OC[C@@H]2OC` [Example 48, 1,4:3,6-dianhydro-5-deoxy-5-({[4-[(4,5-dichloro-2-fluorophenyl)amino]-6-(methyloxy)quinazolin-7-yl]oxy}methyl)-2-O-methyl-D-glucitol], the figures for the IC50 in assay [1], in assay [2] and in assay [3] were under 50 nM, 1000 to 20000 nM and 1000 to 20000 nM, respectively.

`COc1cc2c(Nc3cccc(Cl)c3F)ncnc2cc1O[C@H]1CO[C@H]2[C@@H]1OC[C@@H]2OC` [Example 71, 1,4:3,6-dianhydro-2-O-[4-[(3-chloro-2-fluorophenyl)amino]-6-(methyloxy)quinazolin-7-yl]-5-O-methyl-L-iditol]: the IC50 in assay [1] is under 50 nM; in assay [2], 50 to 1000 nM; in assay [3] it was 50 to 1000 nM.

`COc1cc2c(Nc3ccc(Cl)c(Cl)c3)ncnc2cc1O[C@H]1CO[C@H]2[C@@H]1OC[C@@H]2OC` [Example 72, 1,4:3,6-dianhydro-2-O-[4-[(3,4-dichlorophenyl)amino]-6-(methyloxy)quinazolin-7-yl]-5-O-methyl-L-iditol]: the IC50 in assay [1] was under 50 nM; in assay [2] it was 50 to 1000 nM; in assay [3], 50 to 1000 nM.

As to `CCO[C@H]1CO[C@H]2[C@@H]1OC[C@@H]2Oc1cc2ncnc(Nc3ccc(Br)c(Cl)c3)c2cc1OC` [Example 74, 1,4:3,6-dianhydro-2-O-[4-[(4-bromo-3-chlorophenyl)amino]-6-(methyloxy)quinazolin-7-yl]-5-O-ethyl-L-iditol], the IC50 in assay [1] was under 50 nM; in assay [2] it was 1000 to 20000 nM; in assay [3], 50 to 1000 nM.

Consider `COc1cc2c(Nc3cccc(Br)c3C)ncnc2cc1O[C@H]1CO[C@H]2[C@@H]1OC[C@@H]2OC` [Example 75, 1,4:3,6-dianhydro-2-O-[4-[(3-bromo-2-methylphenyl)amino]-6-(methyloxy)quinazolin-7-yl]-5-O-methyl-L-iditol], for which the IC50 in assay [1] is under 50 nM; in assay [2] it was 50 to 1000 nM; in assay [3], under 50 nM.

Regarding `COc1cc2c(Nc3cccc(Cl)c3C)ncnc2cc1O[C@H]1CO[C@H]2[C@@H]1OC[C@@H]2OC` [Example 76, 1,4:3,6-dianhydro-2-O-[4-[(3-chloro-2-methylphenyl)amino]-6-(methyloxy)quinazolin-7-yl]-5-O-methyl-L-iditol], the concentration for half-maximal inhibition (IC50) in assay [1] was under 50 nM; in assay [2] it was 50 to 1000 nM; in assay [3], 50 to 1000 nM.

Turning to `COc1cc(OC)c(Nc2ncnc3cc(O[C@@H]4CO[C@@H]5[C@H]4OC[C@H]5F)c(OC)cc23)cc1Cl` [Example 135, 1,4:3,6-dianhydro-5-O-[4-{[5-chloro-2,4-bis(methyloxy)phenyl]amino}-6-(methyloxy)quinazolin-7-yl]-2-deoxy-2-fluoro-D-iditol], the IC50 in assay [1] and in assay [3] was under 50 nM each time.

As to `COc1cc2c(Nc3ccc(F)c(Cl)c3F)ncnc2cc1O[C@@H]1CO[C@@H]2[C@H]1OC[C@H]2F` [Example 137, 1,4:3,6-dianhydro-5-O-[4-[(3-chloro-2,4-difluorophenyl)amino]-6-(methyloxy)quinazolin-7-yl]-2-deoxy-2-fluoro-D-iditol], the IC50 in assay [1] and in assay [3] was under 50 nM in each case.

Regarding `COc1cc2c(Nc3ccc(Cl)c(Cl)c3)ncnc2cc1OCc1nc(CN(C)C)no1` [Example 139, N-(3,4-dichlorophenyl)-7-[({3-[(dimethylamino)methyl]-1,2,4-oxadiazol-5-yl}methyl)oxy]-6-(methyloxy)quinazolin-4-amine], the IC50 in assay [1] was under 50 nM; in assay [3] it was 50 to 1000 nM.

`COc1cc2c(Nc3ccc(Cl)c(Cl)c3)ncnc2cc1OCc1noc(C2CCNCC2)n1` [Example 141, N-(3,4-dichlorophenyl)-6-(methyloxy)-7-{[(5-piperidin-4-yl-1,2,4-oxadiazol-3-yl)methyl]oxy}quinazolin-4-amine]: the half-maximal inhibitory concentration (IC50) in assay [1] was under 50 nM; in assay [3], 50 to 1000 nM.

Consider `COc1cc2c(Nc3ccc(Cl)c(Cl)c3)ncnc2cc1OCc1noc(C2CCN(C)CC2)n1` [Example 142, N-(3,4-dichlorophenyl)-6-(methyloxy)-7-({[5-(1-methylpiperidin-4-yl)-1,2,4-oxadiazol-3-yl]methyl}oxy)quinazolin-4-amine], for which the IC50 in assay [1] was under 50 nM; in assay [3] it was 50 to 1000 nM.

For the compound `COc1cc2c(Nc3ccc(Cl)c(Cl)c3)ncnc2cc1OCc1nc(CN2CCOCC2)no1` [Example 143, N-(3,4-dichlorophenyl)-6-(methyloxy)-7-({[3-(morpholin-4-ylmethyl)-1,2,4-oxadiazol-5-yl]methyl}oxy)quinazolin-4-amine], the IC50 in assay [1] was under 50 nM; in assay [3] it was 50 to 1000 nM.

With `COc1cc2c(Nc3ccc(Cl)c(Cl)c3)ncnc2cc1OCc1noc(C2CCCCN2)n1` (centres unmarked) [Example 145, N-(3,4-dichlorophenyl)-6-(methyloxy)-7-{[(5-piperidin-2-yl-1,2,4-oxadiazol-3-yl)methyl]oxy}quinazolin-4-amine], the IC50 in assay [1] is under 50 nM; in assay [3], 50 to 1000 nM.

For the compound `COc1cc2c(Nc3ccc(Cl)c(Cl)c3)ncnc2cc1OCC1CN(Cc2ccccc2)CCO1` (centres unmarked) [Example 147, N-(3,4-dichlorophenyl)-6-(methyloxy)-7-({[4-(phenylmethyl)morpholin-2-yl]methyl}oxy)quinazolin-4-amine], the IC50 in assay [1] is under 50 nM; in assay [3], 50 to 1000 nM.

Consider `COc1cc2c(Nc3ccc(Cl)c(Cl)c3)ncnc2cc1OCc1noc(C2CCCNC2)n1` (centres unmarked) [Example 153, N-(3,4-dichlorophenyl)-6-(methyloxy)-7-{[(5-piperidin-3-yl-1,2,4-oxadiazol-3-yl)methyl]oxy}quinazolin-4-amine], for which the concentration for half-maximal inhibition (IC50) in assay [1] is under 50 nM; in assay [3], 50 to 1000 nM.

For `COc1cc2c(Nc3ccc(Cl)c(Cl)c3)ncnc2cc1OCc1noc(C2CCCN(C)C2)n1` (centres unmarked) [Example 156, N-(3,4-dichlorophenyl)-6-(methyloxy)-7-({[5-(1-methylpiperidin-3-yl)-1,2,4-oxadiazol-3-yl]methyl}oxy)quinazolin-4-amine], the IC50 in assay [1] was under 50 nM; in assay [3], 50 to 1000 nM.

As for `COc1cc2c(Nc3ccc(Cl)c(Cl)c3)ncnc2cc1OCc1ccncc1` [Example 172, N-(3,4-dichlorophenyl)-6-(methyloxy)-7-[(pyridin-4-ylmethyl)oxy]quinazolin-4-amine], the IC50 in assay [1] and in assay [3] was under 50 nM each time.

With `COc1cc2c(Nc3ccc(Cl)c(Cl)c3)ncnc2cc1OCc1cccnc1` [Example 179, N-(3,4-dichlorophenyl)-6-(methyloxy)-7-[(pyridin-3-ylmethyl)oxy]quinazolin-4-amine], the half-inhibitory concentration (IC50) in assay [1] was under 50 nM; in assay [2] it was 1000 to 20000 nM.

In the case of `COc1cc2c(Nc3ccc(Cl)c(Cl)c3)ncnc2cc1OCc1nc(N2CCNCC2)no1` [Example 217, N-(3,4-dichlorophenyl)-6-(methyloxy)-7-{[(3-piperazin-1-yl-1,2,4-oxadiazol-5-yl)methyl]oxy}quinazolin-4-amine], the IC50 in assay [2] is under 50 nM.

Turning to `COc1cc2c(Nc3ccc(Cl)c(Cl)c3)ncnc2cc1OCc1csc(-c2ccc(C(F)(F)F)cc2)n1` [Example 222, N-(3,4-dichlorophenyl)-6-(methyloxy)-7-[({2-[4-(trifluoromethyl)phenyl]-1,3-thiazol-4-yl}methyl)oxy]quinazolin-4-amine], the IC50 in assay [1] is under 50 nM; in assay [3], 50 to 1000 nM.

Take `COc1cc2c(Nc3ccc(Cl)c(Cl)c3)ncnc2cc1OCc1c(F)cccc1F` [Example 233, N-(3,4-dichlorophenyl)-7-{[(2,6-difluorophenyl)methyl]oxy}-6-(methyloxy)quinazolin-4-amine]: the IC50 in assay [1] and in assay [3] was under 50 nM throughout.

Regarding `CCCN1CCCOC(COc2cc3ncnc(Nc4ccc(Cl)c(Cl)c4)c3cc2OC)C1` (centres unmarked) [Example 258, N-(3,4-dichlorophenyl)-6-(methyloxy)-7-{[(4-propyl-1,4-oxazepan-2-yl)methyl]oxy}quinazolin-4-amine], the IC50 in assay [1] is under 50 nM; in assay [3], 50 to 1000 nM.

As for `COc1cc2c(Nc3ccc(Cl)c(Cl)c3)ncnc2cc1OCC1CN(CC2CC2)CCCO1` (centres unmarked) [Example 259, 7-({[4-(cyclopropylmethyl)-1,4-oxazepan-2-yl]methyl}oxy)-N-(3,4-dichlorophenyl)-6-(methyloxy)quinazolin-4-amine], the IC50 was under 50 nM in assay [1] and 50 to 1000 nM in assay [3].

Turning to `COc1cc2c(Nc3ccc(Cl)c(Cl)c3)ncnc2cc1OCC1CN(C2CCCC2)CCO1` (centres unmarked) [Example 269, 7-{[(4-cyclopentylmorpholin-2-yl)methyl]oxy}-N-(3,4-dichlorophenyl)-6-(methyloxy)quinazolin-4-amine], the IC50 was under 50 nM in assay [1] and 50 to 1000 nM in assay [3].
